Data from patent publication US20070167499A1, “Biaryl linked hydroxamates: preparation and pharmaceutical applications” (A*BIO Pte Ltd., priority 2003, published 2007).

Tests used:
HDAC1 enzyme (GST-HDAC1) = target: T1, HDAC1 enzyme (GST-HDAC1) (Homo sapiens, UniProt Q13547); assay: In vitro HDAC assay for determination of IC50 values (BIOMOL fluorescent-based HDAC activity assay), HDAC1; format: biochemical; conditions: 600 nM HDAC1 enzyme, 500 μM Flur de lys generic substrate, room temperature 2 h
T1 construct: Amplification of human HDAC1 and HDAC8 coding region from this cDNA library; made in house; host or cells: SF9 insect cells (baculovirus, pDEST20 vector)
T1 sequence (Q13547 whole entry): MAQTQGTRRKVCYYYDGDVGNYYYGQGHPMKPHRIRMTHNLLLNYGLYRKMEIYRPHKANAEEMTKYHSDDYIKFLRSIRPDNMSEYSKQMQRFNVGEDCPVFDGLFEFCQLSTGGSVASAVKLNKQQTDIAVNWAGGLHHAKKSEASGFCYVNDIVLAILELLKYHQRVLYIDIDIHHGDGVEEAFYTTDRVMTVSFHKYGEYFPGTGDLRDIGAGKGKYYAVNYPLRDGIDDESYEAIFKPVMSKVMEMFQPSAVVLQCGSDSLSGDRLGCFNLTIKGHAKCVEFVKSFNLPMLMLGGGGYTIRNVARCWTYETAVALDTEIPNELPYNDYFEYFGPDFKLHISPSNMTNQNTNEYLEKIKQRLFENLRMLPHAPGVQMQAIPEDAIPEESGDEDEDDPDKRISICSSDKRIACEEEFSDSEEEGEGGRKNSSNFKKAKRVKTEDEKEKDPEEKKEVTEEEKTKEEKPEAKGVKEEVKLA
Method: Recombinant GST-HDAC1 and GST-HDAC-8 Protein expression and purification
Human cDNA library was prepared using cultured SW620 cells. Amplification of human HDAC1 and HDAC8 coding region from this cDNA library was cloned separately into the baculovirus expression pDEST20 vector and pFASTBAC vector respectively (GATEWAY Cloning Technology, Invitrogen Pte Ltd). The pDEST20-HDAC1 and pFASTBAC-HTGST-HDAC8 constructs were confirmed by DNA sequencing. Recombinant baculovirus was prepared using the Bac-To-Bac method following the manufacturer's instruction (Invitrogen Pte Ltd). Baculovirus titer was determined by plaque assay to be about 10^8 PFU/ml.
Expression of GST-HDAC1 or HTGST-HDAC8 was done by infecting SF9 cells (Invitrogen Pte Ltd) with pDEST20-HDAC1 or pFASTBAC-GST-HDAC8 baculovirus at MOI=1 for 48 h. Soluble cell lysate was incubated with pre-equilibrated Glutathione Sepharose 4B beads (Amersham) at 4° C. for 2 h. The beads were washed with PBS buffer for 3 times. The GST-HDAC1 protein or GST-HDAC8 protein was eluted by elution buffer containing 50 mM Tris, pH8.0, 150 mM NaCl, 1% Triton X-100 and 10 mM or 20 mM reduced Glutathione. The purified GST-HDAC1 protein or purified GST-HDAC8 protein was dialyzed with HDAC storage buffer containing 10 mM Tris, pH7.5, 100 mM NaCl and 3 mM MgCl2. 20% Glycerol was added to purified GST-HDAC1 protein or purified GST-HDAC8 before storage at −80° C.
In vitro HDAC assay for determination of IC50 values
The assay has been carried out in 96 well format and the BIOMOL fluorescent-based HDAC activity assay has been applied. The reaction composed of assay buffer, containing 25 mM Tris pH 7.5, 137 mM NaCl, 2.7 mM KCl, 1 mM MgCl2, 1 mg/ml BSA, tested compounds, 500 nM HDAC8 enzyme or 600 nM HDAC1 enzyme, 200 μM Flur de lys p53 peptide substrate for HDAC8 enzyme or 500 μM Flur de lys generic substrate for HDAC1 enzyme and subsequently was incubated at room temperature for 2 h. Flur de lys Developer was added and the reaction was incubated for 10 min. Briefly, deacetylation of the substrate sensitizes it to the developer, which then generates a fluorophore The fluorophore is excited with 360 nm light and the emitted light (460 nm) is detected on a fluorometric plate reader (Tecan Ultra Microplate detection system, Tecan Group Ltd.).
The analytical software, Prism 3.0® (GraphPad Software Inc) has been used to generate IC50 from a series of data.

NCI H552 = assay: Cell-based proliferation assay for determination of GI50 values, lung cancer cell line; conditions: Homo sapiens; 96 h treatment, cyquant cell proliferation assay; read-out: Cellular activities GI50, NCI H552
Method: Cell-based Proliferation assay for determination of GI50 values
Three different cancer cell lines were obtained from ATCC: Human colon cancer cell line (Colo205), human breast cancer cell lines (MDA-MB435), and human lung cancer cell line (NCl-H522). Colo205 cells and NCl-H522 were cultivated in RPMI 1640 containing 2 mM
L-Glutamine, 5% FBS, 1.0 mM Na Pyruvate. MDA-MB435 cells were cultivated in DMEM containing 2 mM L-Glutamine, 5% FBS. Colo205 cells were seeded in 96-wells plate at 2000 and 5000 cells per well respectively. MDA-MB435 and NCl-H522 cells were seeded in 96-wells plate at 6000 cells per well. The plates were incubated at 37° C., 5% CO2, for 24 h. Cells were treated with compounds at various concentrations for 96 h. Cell growth was then monitored using cyquant cell proliferation assay (Invitrogen Pte Ltd). Dose response curves were plotted to determine GI50 values for the compounds using XL-fit (ID Business Solution, Emeryville, Calif.).

[1] = tested on: acetylated H4 in Colo205 cells; assay: Histone H4 acetylation assay (western-blot); format: cell-based, human; parameters: key: “Active” means accumulation of acetylated histone was observed when compared with control (without compound); conditions: Colo205 cells, 0.1, 1, 5 and 10 μM, after 24 h
Method: Histone H3, H4 and H2A acetylation assay
A hallmark of histone deacetylase (HDAC) inhibition is the increase in the acetylation level of histones. Histone acetylation, including H3, H4 and H2A can be detected by immuno-blotting (western-blot). Colo205 cells, approximately 1.5×10^6 cells/10 cm dish, were seeded in the previously described medium, cultivated for 24 h and subsequently treated with HDAC inhibitory agents at 0.1, 1, 5 and 10 μM final concentration. After 24 h, cells were harvested and lysed according to the instruction from Sigma Mammalian Cell Lysis Kit. The protein concentration was quantified using BCA method (Sigma Pte Ltd). The protein lysate was separated using 4-12% bis-tris SDS-PAGE gel (Invitrogen Pte Ltd) and was transferred onto PVDF membrane (BioRad Pte Ltd). The membrane was probed separately using primary antibody specific for acetylated H3, acetylated H4 or acetylated H2A (Upstate Pte Ltd). The detection antibody, goat anti rabbit antibody conjugated with horse radish peroxidase (HRP) was used according to the manufacturing instruction (Pierce Pte Ltd). After removing the detection antibody from the membrane, an enhanced chemiluminescent substrate for detection of HRP (Pierce Pte Ltd) was added onto the membrane. After removing the substrate, the membrane was exposed to an X-ray film (Kodak) for 1 sec-20 mins. The X-ray film was developed using the X-ray film processor. The density of each band observed on the developed film could be analysed using UVP Bioimaging software (UVP, Inc, Upland, Calif.). The values were then normalized against the density of actin in the corresponding samples to obtain the expression of the protein.

IC50 (HDAC1 enzyme (GST-HDAC1)) [nM] | SMILES | GI50 (NCI H552) [nM] | Histone 4 acetylation [1]
> 100000 | O=C(Cc1ccc(-c2csc(NC(=O)Cc3ccccc3)n2)s1)NO [Example 1, N-Hydroxy-2-[5-(2-phenylacetylamino-thiazol-4-yl)-thiophen-2-yl]-acetamide] | 2360 | –
510 | Nc1nc(-c2ccc(/C=C/C(=O)NO)cc2)cs1 [Example 23, 3-[4-(2-Amino-thiazol-4-yl)-phenyl]-N-hydroxy-acrylamide] | 13300 | Active
66 | O=C(NO)c1ccc(-c2ccc(CNCCc3ccccc3)cc2)s1 [Example 26, 5-[4-(Phenethylamino-methyl)-phenyl]-thiophene-2-carboxylic acid hydroxyamide] | – | Active
200 | O=C(NO)c1ccc(-c2ccc(CNCCc3ccccn3)cc2)s1 [Example 27] | – | Active
